Data set [1] addresses SCV helicase (nsp13) ATPase activity (Severe acute respiratory syndrome coronavirus, UniProt P0C6X7). Description: biochemical. Also noted: species or system SARS coronavirus.
Data set [2] addresses SCV helicase helicase activity (Severe acute respiratory syndrome coronavirus, UniProt P0C6X7). The format is biochemical, SARS coronavirus.
For data set [3], the target named is SCV helicase (nsp13) unstimulated ATPase activity (Severe acute respiratory syndrome coronavirus, UniProt P0C6X7). The format is biochemical, SARS coronavirus.
Data set [4] relates to SCV (strain GZ50) in FRhK-4 cells. The format is cell-based, SARS coronavirus. As to conditions: 50 μM.
Data set [5] shares this test system. Description: microbe, parasite or virus in culture. Type of data set: cell-based, SARS coronavirus.
Another data set has as its target E. coli DnaB helicase (Escherichia coli, UniProt P0ACB0). Type of data set: biochemical.
The test system of the next data set is SARS coronavirus (SCV). As to conditions: cited from earlier work.

Entries after “also recorded” stand apart in the source; their conditions may differ. Where only a bound is given, the exact number is not on record here.

Sequence of E. coli DnaB helicase (P0ACB0 whole entry): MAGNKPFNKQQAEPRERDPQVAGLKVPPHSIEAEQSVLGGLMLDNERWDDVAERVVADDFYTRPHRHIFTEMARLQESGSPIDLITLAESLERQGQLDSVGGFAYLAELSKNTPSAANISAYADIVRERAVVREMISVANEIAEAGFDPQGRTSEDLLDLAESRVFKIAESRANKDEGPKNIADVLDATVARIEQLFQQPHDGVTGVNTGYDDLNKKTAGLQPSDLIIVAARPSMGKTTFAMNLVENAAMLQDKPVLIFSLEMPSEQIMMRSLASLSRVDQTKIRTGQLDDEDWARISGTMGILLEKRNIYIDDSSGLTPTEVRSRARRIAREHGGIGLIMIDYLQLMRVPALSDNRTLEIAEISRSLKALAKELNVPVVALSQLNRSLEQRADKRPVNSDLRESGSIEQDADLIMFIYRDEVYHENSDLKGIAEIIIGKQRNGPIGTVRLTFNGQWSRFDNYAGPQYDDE

For orientation: IC50 means the point on the concentration scale where inhibition reaches its midpoint. Low values mean inhibition by little substance, high ones a need for much substance. One may read the EC50 as the midpoint of the concentration-response curve. As to `Cc1ncc(CO)c(C23OC4(O)CC(O)(CC(O)(C4)O2)O3)c1O` [bananin, 1-[3-hydroxy-5-(hydroxymethyl)-2-methyl-4-pyridinyl]-2,8,9-trioxaadamantane-3,5,7-triol], the “Specificity index (CC50/EC50)” value in the data set with FRhK-4 cells is on record as “over 39”. Moreover, in data set [1], the IC50 stood at 2300 nM and the “Mechanism of inhibition of ATPase activity” value is “noncompetitive inhibitor”. For the same compound, the “Inhibition of helicase activity (in words)” value (shortened to “Inhibition … (in words)”) in data set [2] was “effective inhibitors; also recorded: the best inhibitors of DNA-unwinding”. Moreover, the “Inhibition of unstimulated basal ATPase activity” value in data set [3] is recorded as “not an effective inhibitor; also recorded: Far weaker inhibition”. Besides, the “Inhibition of unstimulated basal ATPase activity at 100 µM” value in data set [3] (100 µM) is reported as “slight inhibition”. In addition, the “Cytopathic effects relative to control infection” value in data set [4] was “distinctly reduced”. Further, in data set [5], the “Reduction of viral titre” value is on record as ~50%; the Viral titre entry is “almost zero”; the “Viral titre, % of untreated control infection” value was “below 10%”. Further, in data set [5] (Severe acute respiratory syndrome coronavirus, FRhK-4, read-out: EC50 (antiviral, viral titre)), the EC50 is < 10 µM. Also, the “Inhibition of DnaB helicase” value at E. coli DnaB helicase is recorded as “did not inhibit”.
Take `COc1cc(C23OC4(O)CC(O)(CC(O)(C4)O2)O3)ccc1O` [vanillinbananin, 1-(4-hydroxy-3-methoxyphenyl)-2,8,9-trioxaadamantane-3,5,7-triol]: the IC50 in data set [1] was determined as 680 nM. The “Inhibition … (in words)” value in data set [2] is on record as “effective inhibitors; also recorded: the best inhibitors of DNA-unwinding”.
For `NC(=O)c1ncn([C@@H]2O[C@H](CO)[C@@H](O)[C@H]2O)n1` [ribavirin], the “Activity in cell culture” value with SARS coronavirus (SCV) is listed as “lack of activity”.
`COc1cc(CC(C)c2nc(C)c(O)c(C34OC5(O)CC(O)(CC(O)(C5)O3)O4)c2CO)ccc1O` (racemic) [eubananin, 1-[6-[(2RS)-1-(4-hydroxy-3-methoxyphenyl)-2-propyl]-3-hydroxy-5-(hydroxymethyl)-2-methyl-4-pyridinyl]-2,8,9-trioxaadamantane-3,5,7-triol] yielded an IC50 in data set [1] of 2800 nM. Moreover, the “Inhibition … (in words)” value in data set [2] is reported as “effective inhibitors; also recorded: the best inhibitors of DNA-unwinding”.

(Values after paper PMC7110988 (Chemistry & Biology, 2005).)
